Values of other authors in paper PMC7350276 (Journal of pharmaceutical and biomedical analysis, 2019).
Read-outs that look alike come from different tables or passages of the source.

How the values were obtained:
[1] = male rats, I.V. 4 mg/kg
μ-opioid receptors [2] = system: μ-opioid receptors
μ-opioid receptors [3] = conditions: reversal of morphine-induced inhibition of twitch of the Guinea pig ileum
rabbits [4] = conditions: intravenously at doses higher than 10 mg/kg
rabbits [5] = conditions: subcutaneous 15–20 mg/kg, co-injected with 0.2 mg/kg adrenaline
[6] = I.V. 5 mg/kg, mean ± R.S.D.

In the case of `CC[C@@H]1CN2CC[C@@]3(O)C(=Nc4cccc(OC)c43)[C@@H]2C[C@@H]1/C(=C\OC)C(=O)OC` [7HMG, 7-hydroxymitragynine], the MRT [1] is listed as 1.18 ± 0.167 h and the “Functional activity at μ-opioid receptors” value (shortened to “Functional activity”) (μ-opioid receptors [2]; no reference given) is listed as “potent μ-opioid agonist”.
In the case of corynantheidine, the “Functional activity” value (μ-opioid receptors [3]) is given as “antagonist”, the “Effect on hypertensive effects of adrenaline” value (rabbits [4]) is given as “almost fully blocked” and the “Effect on adrenaline-induced mydriasis” value (rabbits [5]) is given as “prevented adrenaline-induced mydriasis”.
In the case of mitragynine [MG], the MRT [6] is listed as 137 ± 18 and the “Functional activity” value (μ-opioid receptors [2]) is listed as “partial agonist”.
